Measurements from ChEMBL document CHEMBL4610017, “Discovery of 1,2,4-oxadiazole derivatives as a novel class of noncompetitive inhibitors of 3-hydroxykynurenine transaminase (HKT) from Aedes aegypti” (Bioorg Med Chem, 2020).
Activity calls are given as the source filed them. The calls are words filed in the database; no cut-off is given here.

Legend:
[1] = Binding affinity to recombinant Aedes aegypti RecLab N-terminal Trx-fused/His6-tagged 3-hydroxykynurenine transaminase H360M mutant expressed in Escherichia coli Rosetta 2 (DE3) assessed as inhibition constant for enzyme-substrate complex
Aedes aegypti = test: Non-competitive mixed inhibition of recombinant Aedes aegypti RecLab N-terminal Trx-fused /His6-tagged 3-hydroxykynurenine transaminase H360M mutant expressed in Escherichia coli Rosetta 2 (DE3) using varying level of 3-D,L hydroxy kynurenine as substrate by Lineweaver-Burk plot analysis
[2] = Binding affinity to recombinant Aedes aegypti RecLab N-terminal Trx-fused/His6-tagged 3-hydroxykynurenine transaminase H360M mutant expressed in Escherichia coli Rosetta 2 (DE3) assessed as inhibition constant for free form of enzyme
[3] = Inhibition of recombinant Aedes aegypti RecLab N-terminal Trx-fused/His6-tagged 3-hydroxykynurenine transaminase H360M mutant expressed in Escherichia coli Rosetta 2 (DE3) assessed as conversion of 3-hydroxy kynurenine to xanthurenic-acid using 3-D,L hydroxy kynurenine as substrate preincubated with PLP cofactor and enzyme and 30 mins later incubated with 3-D,L-HK and measured after 5 mins by microplate reader assay
[4] = Competitive inhibition of Anopheles gambiae 3-hydroxykynurenine transaminase

Row | IC50 [3] | SMILES | further results
1 | 72 µM | O=C(O)CCCc1nc(-c2ccccc2)no1 | Ki [1]: 1220 µM; inhibition (Aedes aegypti): Active; Ki [2]: 360 µM
2 | 88 µM | Cc1ccc(-c2noc(CCCC(=O)O)n2)cc1 | 
3 | 294 µM | O=C(O)CCCc1nc(-c2ccc(Cl)cc2)no1 | 
4 | 110 µM | O=C(O)CCCc1nc(-c2ccc(Br)cc2)no1 | 
5 | 70 µM | O=C(O)CCCc1nc(-c2ccc(C(F)(F)F)cc2)no1 | 
6 | 54 µM | Cc1cccc(-c2noc(CCCC(=O)O)n2)c1 | 
7 | 42 µM | O=C(O)CCCc1nc(-c2ccc(I)cc2)no1 | 
8 | 64 µM | O=C(O)CCCc1nc(-c2ccc(Cl)c(Cl)c2)no1 | 
9 | 63 µM | O=C(O)CCCc1nc(-c2cccc3ccccc23)no1 | 
10 | 101 µM | COc1ccc(-c2noc(CCCC(=O)O)n2)cc1 | 
11 |  | Nc1ccccc1C(=O)CCC(=O)O | Ki [4]: 300 µM
12 | 87 µM | O=C(O)CCCc1nc(-c2ccc3c(c2)OCO3)no1 | 
